In assay [1] the test system is HDMEC-GT derived microvessels. In words: SCID mice xenografting of HDMEC-GT in Matrigel with pro-angiogenic factors; human vessel density by human type IV collagen micromorphometry. The settings on record: for human vessel density (human type IV collagen micromorphometry), result in words: VEGF 2 μg/ml or FGF-2 150 ng/ml in Matrigel with HDMEC-GT, two weeks after implantation, versus controls. In kind it is in vivo, human cells in SCID mice. The method, then: (§1) This procedure is based on a modification of the mouse angiogenesis model previously described^41. Two-three week old male or female SCID mice (Taconic, Germantown, N.Y.) were used as hosts for all implants. Primary HDMEC and HDMEC-T were harvested, washed twice and re-suspended in serum-free EGM-2 basal medium at the concentration of 1×10^5/μl. Ten μl of cells were mixed with 0.5 ml of Matrigel on ice and the mixture was implanted in the ventral midline thoracic tissue of each mouse by subcutaneous injection using a #25 needle. Up to three separate injections could be performed on a single mouse. For some experiments, recombinant human VEGF165 (2 μg/ml) (R&D systems, Minneapolis, Minn.) or bovine FGF-2 (150 ng/ml) (R&D systems, Minneapolis, Minn.) were added to the mixture. When tumor cells (HT1080 and 293, ATCC) or primary human dermal fibroblasts^38 were injected, the procedure remained the same except basal D-MEM medium replaced EGM-2.
(§2) Matrigel implants were removed at 1, 2, 4 and 6 wk following xenografting, fixed in 10% buffered formalin overnight, paraffin-embedded and sectioned. H&E stained thin sections were prepared at Pan-insular Histopathology laboratory (Los Gatos, Calif.). For immunofluoresence, thin sections were deparaffinized and antigens retrieved in 10 mM citric acid (pH 6.0) by microwaving sections for 2×7 min. Sections were then incubated with anti-human type IV collagen IgG (Sigma, St. Louis, Mo.) primary antibody, followed by washing and Cy-3 conjugated secondary IgG according to standard protocols. […] For micromorphometry, 5 separate 20× fields were randomly selected per tissue section and the number of annular structures were counted and averaged. Unless specifically stated otherwise, 3 different sections were viewed per implant and replicate implants were grafted for each experimental condition (FIGS. 3 and 6).
In general terms: Xenograft models place foreign cells or tissue in a host animal.

In assay [2] the test system is host murine blood vessels. Put plainly: Host vessel invasion of Matrigel implants in SCID mice without human EC. The settings on record: FGF-2 alone in Matrigel, no HDMEC. In kind it is in vivo. The method, then:
as §1
Matrigel implants were removed at 1, 2, 4 and 6 wk following xenografting, fixed in 10% buffered formalin overnight, paraffin-embedded and sectioned. H&E stained thin sections were prepared at Pan-insular Histopathology laboratory (Los Gatos, Calif.). […] For micromorphometry, 5 separate 20× fields were randomly selected per tissue section and the number of annular structures were counted and averaged. […]

Assay [3] deals with HDMEC-GT derived microvessels. Put plainly: Endostatin blocking experiments: HDMEC-GT co-implanted with endostatin cDNA-transfected HEK293 cells in Matrigel in SCID mice. It is filed as in vivo, human cells in SCID mice. The settings on record: 1:10 ratio HEK293endo to HDMEC-GT, implants removed after one and two weeks, versus sham-transfected HEK293lacZ. The method, then:
as §2
For digital analysis of eGFP fluorescence images we used a novel algorithm (Moss Filter™) to determine the total amount of vascularization in each implant section. This filter determines whether or not each pixel is part of the fluorescently-labeled vascular region. The filter converts the original (8-bit) digital image into a binary image. Pixel values equal to 1 indicate vascularization, whereas zero values indicate no vascularization. The total amount of vascularization in each implant section is obtained by summing all the values in the binary image.
Inhibition of in vivo vessel formation by local delivery of human endostatin was accomplished as follows: The plasmid pGT60hEndo, expressing recombinant human endostatin (InvivoGen, San Diego, Calif.), was stably transfected into human embryonic kidney (HEK293) cell line by calcium phosphate transfection (Invitrogen, Carlsbad, Calif.). […] HEK293 cells expressing lacZ served as a control for both Western blots and grafting experiments. The cell implantation procedure was the same as that described above except that 1×10^5 (or 10^4 or 10^3) transfected HEK were mixed with HDMEC-GT immediately prior to implantation. Grafts were examined at both one week and two after injection and sections were analyzed by both micromorphometry and eGFP as previously described.

Setting [4] is: listed as recombinant human endostatin.

Entries after “also recorded” stand apart in the source; their conditions may differ.

With VEGF, the “increased vessel density relative to controls” value in assay [1] (VEGF 2 μg/ml mixed with HDMEC-GT and Matrigel, two weeks after grafting, human type IV collagen micromorphometry) is recorded as 20-30%. In assay [1], the “human vessel density (human type IV collagen micromorphometry), result in words” value is “increased vessel density; also recorded: did not demonstrate statistical significance”.
Take “FGF-2: bovine FGF-2 (R&D systems), known pro-angiogenic factor”: the “human vessel density (human type IV collagen micromorphometry), result in words” value in assay [1] is recorded as “statistically increased human vessel density”. Further, the “host vessel invasion of Matrigel implants” value in assay [2] was “stimulated; also recorded: marked host vessel invasion”.

B1: endostatin: recombinant human endostatin, 22kD protein expressed by HEK293 cells stably transfected with plasmid pGT60hEndo (HEK293endo) (protein, UniProt P39060 1572-1754, looked up)
Endostatin: HSHRDFQPVLHLVALNSPLSGGMRGIRGADFQCFQQARAVGLAGTFRAFLSSRLQDLYSIVRRADRAAVPIVNLKDELLFPSWEALFSGSEGPLKPGARIFSFDGKDVLRHPTWPQKSVWHGSDPNGRRLTESYCETWRTEAPSATGQASSLLGGRLLGQSAASCHHAYIVLCIENSFMTASK
modifications: Endostatin
In the case of B1, the “vessel density by micromorphometry (human type IV collagen staining)” value in assay [3] is “statistically significant loss of vessel density”; in assay [3] (setting [4]), “decreased microvessel formation”. Moreover, the “vessel density by total fluorescence intensity extracted from binary images of eGFP (Moss Filter)” value in assay [3] is recorded as “statistically significant loss of vessel density”; in assay [3] (setting [4]), “decreased microvessel formation”.

The values above are taken from patent publication US6906237B2, “Vivo assay for anti angiogenic compounds” (priority 2001, dated 2005).
